Earlier results as cited in patent US20070178172A1, “Composition for reducing blood lipids” (MAXLUCK BIOTECHNOLOGY CORP., priority 2004, published 2007).

System: obesity mouse
Conditions: Cefalu et al. 2002

In the case of chromium picolinate, the “effect on blood lipids” value is given as “could reduce the blood lipids”.
